According to patent US20190328670A1, “Microparticles for Oral Delivery” (Intervet Inc., priority 2004, published 2019):

Assay: Oral bioavailability in rats compared with conventional formulations
Assay type: in vivo
Method: Glyceryl tricaprylate and tricaprate mixture solutions containing these drugs are admixed in complex slurry according to Example 1 and recovered as free-flowing powders as in Example 2. […] Oral bioavailability is tested in rats and compared with those from other conventional formulations.
A soy oil solution containing 100 parts per million of triclosan is admixed in a complex slurry containing 100 parts per million of chlorhexidine according to Example 1. Microbeads are then produced and recovered as free-flowing powders as in Example 2. […] Oral bioavailability is tested in rats and compared with those from other conventional formulations.

Row | Gastrointestinal absorption (rat, in vivo, po) | Gastrointestinal absorption (rats, oral, from the microbeads/microcapsules versus powders, granules, or oil solution) | Compound
1 | more efficient | – | [H]/N=C(\N/C(=N/[H])NCCCCCCNC(=N)NC(=N)Nc1ccc(Cl)cc1)Nc1ccc(Cl)cc1 [chlorhexidine]
2 | – | more efficient | Oc1cc(Cl)ccc1Oc1ccc(Cl)cc1Cl [triclosan]
